Like-named read-outs stand apart in the source and are kept apart here.
Assays:
[1] = system: 786-O; experiment: Cell proliferation (Alamar Blue) assay, 786-O renal cell carcinoma, with/without ferrostatin; type: cell-based; details: Homo sapiens, 786-0, Cell Line 786-O; read-out: IC50
Method: Cell viability assay was performed to assess the potency of the compounds in human cancer cell lines 786-O (renal cell carcinoma) and SJSA-1 (osteosarcoma). Additional cell lines, such as those described above in Example 4 as well as various others, e.g., pancreatic cancer cell lines (Panc 02.13, BxPC-3, Panc 12, Panc 02.03, Panc 6.03, PSN-1, HPAC, and Capan-1) and prostate cancer cell lines (PC-3, DU145, 22Rv1, NCI-H660, BPH1, LNCaP, BM-1604, and MDA PCa 2b), were tested for select compounds as shown in Table 25.
Cells (SJSA-1, 786-O and A431) were seeded (5000 cells/100 μL/well) in 96-well tissue culture plate and incubated at 37° C./5% CO2 for 16-24 hours. The cells were then treated with compounds (25 μL of 5×). The compound concentrations were 10-0.0005 μM prepared in 3-fold serial dilutions with final DMSO concentration of 1%. The plates were then incubated for 24 h at 37° C./5% CO2 in a moist environment. Then Alamar Blue™ reagent (final concentration 1×-12.5 μL) was added to each well and incubated for 1.5 hours at 37° C./5% CO2. The plates were read on fluorescence reader at 540 nm excitation and 590 nm emission wavelengths. The IC50 values were subsequently determined using a sigmoidal dose-response curve (variable slope) in GraphPad Prism® 5 software.
Studies have shown that lipophilic antioxidants, such as ferrostatin, can rescue cells from GPX4 inhibition-induced ferroptosis. For instance, mesenchymal state GPX4-knockout cells can survive in the presence of ferrostatin, however, when the supply of ferrostatin is terminated, these cells undergo ferroptosis (see, e.g., Viswanathan et al., Nature 547:453-7, 2017). […] Accordingly, the ability of a molecule to induce ferroptotic cancer cell death, and that such ability is admonished by the addition of ferrostatin, is clear indication that the molecule is an GPX4 inhibitor.

[2] = system: A549; experiment: Cell viability assay, A549 cells; type: cell-based; details: read-out: IC50
Method: Example 5: Inducer Compound Effect on Growth of A549 and KP4 Cells
Cell viability assay was performed to assess the potency of the compounds in cancer cell line KP4 (pancreatic ductal adenocarcinoma). Cells at a density of 1,000-10,000 cells/well were seeded in 96-well plates and incubated at 37° C. overnight. A series of 9 different concentrations of compound stocks (500×) were created by 3-fold serial dilution in DMSO. These compounds were further diluted in culture media and then added to cells so that the final DMSO concentration was equal to 0.25% or less. After 96 hours of incubation, 50 μL of CellTiter Glo reagent (Promega) was added to each well and luminescence was measured after 10 minutes using EnVision (PerkinElmer). All compounds were tested initially from 30 μM as the top concentration in duplicates (range of 4.6 nM-30 μM). […] Luminescence from cells treated with DMSO alone was set as Max and % of inhibition was calculated as follows: Inhibition %=(Max-Sample value)/Max*100. Data was analyzed using XL-fit software (ID Business Solutions Ltd.). IC50, relative IC50, or % of top inhibition was calculated. […]

[3] = system: SJSA-1; experiment: Cell proliferation (Alamar Blue) assay, SJSA-1 osteosarcoma, with/without ferrostatin; type: cell-based, human; details: read-out: IC50
How it was run: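 Cells seeded at 5000/well, 16-24 h, then exposed 24 h at 37° C to compound, 10-0.0005 μM in 3-fold dilutions, 1% DMSO final. Alamar Blue fluorescence (ex 540/em 590 nm) read after 1.5 h; IC50 from variable-slope sigmoidal fit.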

[4] = system: MCF-10A; experiment: Cell viability assay (CellTiter Glo), non-tumorigenic breast epithelial cell line MCF-10A; type: cell-based; details: Homo sapiens, 96 hours
Method: Cell viability assay was performed to assess the potency of the compounds in human cancer cell lines KP4 (pancreatic ductal adenocarcinoma), MiaPaCa-2 (pancreatic carcinoma), AsPC-1 (pancreatic adenocarcinoma, ascites), 143B (osteosarcoma), and SJSA-1 (osteosarcoma). Selected compounds were also assayed in a human breast epithelial cell line MCF-10A, a nontumorigenic cell line as a control to assess differential activity. Cells at a density of 500-5,000 cells/well were seeded in 96-well plates and incubated at 37° C. overnight. A series of 9 different concentrations of compound stocks (500×) were created by 3-fold serial dilution in DMSO. These compounds were further diluted in culture media and then added to cells so that the final DMSO concentration was equal to 0.25% or less. After 96 hours of incubation, 50 μL of CellTiter Glo reagent (Promega) was added to each well and luminescence was measured after 10 minutes using EnVision (PerkinElmer). Compounds titrated from top concentration of up to 30 μM. The select compounds were tested initially from 30 μM as the top concentration in duplicates (range of 4.6 nM-30 μM). […] Luminescence from cells treated with DMSO alone was set as Max and % of inhibition was calculated as follows: Inhibition %=(Max-Sample value)/Max*100. Data was analyzed using XL-fit software (ID Business Solutions Ltd.). IC50, relative IC50, or % of top inhibition was calculated.
Paclitaxel was used as the positive control for cytotoxicity.

[5] = Homo sapiens, A549, Cell Line A549
[6] = Homo sapiens, SJSA-1, Cell Line SJSA-1

Row | SMILES | IC50 [1] [µM] | IC50 [2, 5] [µM] | IC50 [3, 6] [µM] | IC50 [4] [µM] | IC50 ([2]; Cell Line A549) [µM] | IC50 ([3]; Cell Line SJSA-1) [µM]
1 | C#CC(=O)N1[C@@H](c2ccc(F)c(F)c2)c2[nH]c3ccccc3c2C[C@@H]1C [Compound 199] | 0.529 | 19.5 | 0.338 |  |  | 
2 | CC(C)=CC(=O)N1[C@@H](c2ccc(N3CCOCC3)cc2)c2[nH]c3ccccc3c2C[C@@H]1C [Compound 225] | > 10 | > 30 |  |  |  | 
3 | C#CC(=O)N1[C@@H](c2ccc(C3CCOCC3)cc2)c2[nH]c3ccccc3c2C[C@@H]1C [Compound 192] | 0.194 | 14.2 | 0.12 |  |  | 
4 | C#CC(=O)N1[C@@H](c2ccc(Br)cc2)c2[nH]c3ccccc3c2C[C@@H]1C [Compound 195] | 0.394 | 16.4 | 0.256 |  |  | 
5 | C=C(F)C(=O)N1[C@@H](CCCC)Cc2c([nH]c3ccccc23)[C@@H]1c1ccc(F)cc1 [Compound 186] | > 30 | > 30 | > 30 |  |  | 
6 | C=C(C(=O)N1[C@@H](CCCC)Cc2c([nH]c3ccccc23)[C@@H]1c1ccc(F)cc1)C(F)(F)F [Compound 184] | 12.3 | > 30 | 16.2 |  |  | 
7 | C=CC(=O)N1[C@@H](CCCC)Cc2c([nH]c3ccccc23)[C@@H]1c1ccc(F)cc1 [Compound 179] | > 30 | 27.4 | > 30 |  |  | 
8 | CC#CC(=O)N1[C@@H](CCCC)Cc2c([nH]c3ccccc23)[C@@H]1c1ccc(F)cc1 [Compound 180] | > 30 | 28.4 | > 30 |  |  | 
9 | C#CC(=O)N1[C@@H](c2ccc(F)cc2)c2[nH]c3ccccc3c2C[C@@H]1C#N [Compound 190] | 1.2 | 3.05 | 0.908 |  |  | 
10 | C#CC(=O)N1[C@@H](c2ccc(OC)cc2)c2[nH]c3ccccc3c2C[C@@H]1C [Compound 193] | 0.223 | 13.3 | 0.175 |  |  | 
11 | COC(=O)[C@H]1Cc2c([nH]c3ccccc23)[C@H](c2ccc(C(=O)OCC3(C)CC3)cc2)N1C(=O)CCl [Example 84] |  |  |  | 0.48 |  | 
12 | C#CC(=O)N1[C@@H](CCCC)Cc2c([nH]c3c(F)cc(CO)cc23)[C@@H]1c1ccc(F)cc1 [Compound 134] | 8.19 | > 30 | 0.146 |  |  | 
13 | C#CC(=O)N1[C@@H](c2ccc(C#N)cc2)c2[nH]c3ccccc3c2C[C@@H]1C [Compound 194] | 0.286 | 14.3 | 0.265 |  |  | 
14 | C#CC(=O)N1[C@@H](c2c(F)cc(F)cc2F)c2[nH]c3ccccc3c2C[C@@H]1C [Compound 197] | 0.133 | 5.64 | 0.0102 |  |  | 
15 | COCCOCCOCCOCCOC(=O)[C@H]1Cc2c([nH]c3ccccc23)[C@H](c2ccc(NC34CC5CC(CC(C5)C3)C4)cc2)N1C(=O)CCl [Example 189] |  | 4.11 | 4.2 |  |  | 
16 | C#CC(=O)N1[C@@H](CCCC)Cc2c([nH]c3ccccc23)[C@@H]1C12CC(F)(C1)C2 [Compound 154] | 0.117 | 7.95 | 0.108 |  |  | 
17 | C[C@H]1Cc2c([nH]c3ccccc23)[C@H](c2ccc(S(F)(F)(F)(F)F)cc2)N1C(=O)CCl [Compound 222] | 0.17 | 3.35 | 0.115 |  |  | 

Row | SMILES | IC50 [1] [µM] | IC50 [2, 5] [µM] | IC50 [3, 6] [µM] | IC50 [4] [µM] | IC50 ([2]; Cell Line A549) [µM] | IC50 ([3]; Cell Line SJSA-1) [µM]
18 | C#CC(=O)N1[C@@H](CCCCCC)Cc2c([nH]c3ccccc23)[C@@H]1c1ccc(F)cc1 [Compound 176] |  | 4.1 | 0.206 |  | 4.18 | 0.25
19 | C[C@H]1Cc2c([nH]c3ccccc23)[C@H](c2ccc(F)cc2)N1C(=O)CCl [Compound 221] | 0.137 | 2.81 | 0.0935 |  |  | 
20 | C#CC(=O)N1[C@@H](c2ccc(Cl)cc2)c2[nH]c3ccccc3c2C[C@@H]1C [Compound 196] | 0.267 | 20.6 | 0.133 |  |  | 
21 | CC(=O)O[C@H]1C(=O)[C@@]2(C)[C@H]([C@H](OC(=O)c3ccccc3)[C@]3(O)C[C@H](OC(=O)[C@H](O)[C@@H](NC(=O)c4ccccc4)c4ccccc4)C(C)=C1C3(C)C)[C@]1(OC(C)=O)CO[C@@H]1C[C@@H]2O [paclitaxel, Paclitaxel, reference compound] |  |  |  | 0.001 |  | 
22 | C#CC(=O)N1[C@@H](c2ccc(F)cc2F)c2[nH]c3ccccc3c2C[C@@H]1C [Compound 200] | 0.701 | 10.9 | 0.448 |  |  | 
23 | COC(=O)[C@H]1Cc2c([nH]c3ccccc23)[C@H](c2ccc(C(=O)OCC3CCCCC3)cc2)N1C(=O)CCl [Example 89] |  |  |  | 0.42 |  | 
24 | C#CC(=O)N1[C@@H](c2ccc(F)cc2)c2[nH]c3ccccc3c2C[C@@H]1C [Compound 206] | 1.1 | 21.8 | 0.468 |  |  | 
25 | C#CC(=O)N1[C@@H](CCCC)Cc2c([nH]c3ccc(OC)cc23)[C@@H]1c1ccc(F)cc1 [Compound 155] | 0.113 | 8.52 | 0.081 |  |  | 
26 | C#CC(=O)N1[C@@H](c2cc(F)cc(F)c2)c2[nH]c3ccccc3c2C[C@@H]1C [Compound 198] | 0.181 | 11.2 | 0.09 |  |  | 
27 | C[C@H]1Cc2c([nH]c3ccccc23)[C@H](C23CC(F)(C2)C3)N1C(=O)CCl [Compound 226] | 1.26 | 8.62 | 1.16 |  |  | 
28 | C#CC(=O)N1[C@@H](CCCC)Cc2c([nH]c3ccccc23)[C@@H]1c1ccc(N2CCOCC2)cc1 [Compound 216] | 0.337 | 22.2 | 0.163 |  |  | 
29 | C#CC(=O)N1[C@@H](C)Cc2c([nH]c3ccccc23)[C@@H]1C12CC(F)(C1)C2 [Compound 182] | 0.962 | > 30 | 0.667 |  |  | 
30 | C#CC(=O)N1[C@@H](c2ccc(F)cc2)c2[nH]c3ccccc3c2C[C@@H]1C1CCCC1 [Compound 177] | 0.0788 | 3.22 | 0.0677 |  |  | 
31 | C#CC(=O)N1[C@@H](CCCC)Cc2c([nH]c3ccccc23)[C@@H]1c1ccc(F)cc1 [Compound 205] | 0.0619 | 4.41 | 0.0324 |  |  | 
32 | C#CCOc1ccc2[nH]c3c(c2c1)C[C@H](C)N(C(=O)CCl)[C@H]3c1ccc(NC23CC4CC(CC(C4)C2)C3)cc1 [Compound 207] | 0.214 | 13.3 | 0.0868 |  |  | 
33 | C#CC(=O)N1[C@@H](c2c(F)cccc2F)c2[nH]c3ccccc3c2C[C@@H]1C [Compound 201] | 0.642 | 14.8 | 0.19 |  |  | 
